Results: patent US4354039A, “Chlorocitric acids” (Hoffmann-La Roche Inc., priority 1981, dated 1982)
Several values for one entry are separate records, joined by “and”; a condition that tells them apart may be missing. Identical values can stand only once. Like-named read-outs stand apart in the source and are kept apart here.

Experiments:
[1] = Food intake in dogs, pyramiding oral doses (Examples 26 and 27); assay type: in vivo, beagle dogs
Protocol: Twelve beagle dogs of both sexes weighing 7.6-12.2 kg were used for this test. The test compounds were contained in gelatin capsules for oral administration to two dogs of each sex. The animals were weighed and food consumption calculated daily excluding weekends throughout the test period. Each animal received 800 grams of diet daily consisting of 400 grams of Wayne pellet dog food mixed with 400 ml distilled water. The animals received pyramiding oral doses of the test compound over the three week period. On Monday and Tuesday of the first week the animals were weighed and food consumption was recorded (control). […] Doses of 30, 100 and 300 mg/kg were administered on Monday, Wednesday and Friday respectively during the second week. A final dose of 1000 mg/kg was administered on Monday of the third week.
Food intake was determined by the procedure at pyramiding doses described in EXAMPLE 26.

[2] = Anorectic activities of stereoisomers, 3-day food consumption and body weight gain (Example 16); assay type: in vivo, Charles River female rats; settings: 1.32 mmoles/kg oral, 3 days
Protocol: Charles River female rats (Charles River Breeding Laboratories, Wilmington, Mass.), weighing 196 to 210 g, were individually housed in wire-bottomed cages in a temperature-regulated (22° C.) light-controlled room (12 hr light, 6 a.m. to 6 p.m. and 12 hr dark, 6 p.m. to 6 a.m.). Animals were fasted 48 hr, then meal-fed a 70% glucose diet from 8 to 11 a.m. Following 5 to 12 days alimentation on the meal-feeding regimen, rats were dosed with the appropriate compounds orally by intubation 1/2 hr before the 3 hr meal for 3 days. The total food consumption and body weight gained during the 3 day period were determined. The control group consisted of 16 rats, while the experimental group consists of 8 rats.

[3] = Effect of stereoisomers on food consumption of meal-fed rats (Example 14); assay type: in vivo, Charles River female rats
Protocol: Animals were fasted 48 hr, then meal-fed the 70% glucose diet described by A. C. […] Following 5 to 12 days alimentation on the meal-feeding regimen, rats were dosed with the appropriate compounds orally by intubation 1/2 hr before the 3 hr meal. Food cups were weighed immediately after the meal. The control group consisted of 5 to 10 rats, while the experimental group consisted of 4 to 6 rats.

[4] = Anorectic activity, acute, pyramiding dose and chronic studies (summary statements); assay type: in vivo, mammals; settings: in words
[5] = Total body fat in meal-fed rats, oral, 17 day study (Example 22); assay type: in vivo, Charles River female rats; settings: Chow, 17 days
Protocol: Two month old Charles River female rats (Charles River Breeding Laboratories, Wilmington, Mass.) were individually housed in wire-bottomedcages in a temperature-regulated (22° C.) light-controlled room (12 hr light, 6 a.m. to 6 p.m. and 12 hr dark, 6 p.m. to 6 a.m.). […] On the 8th day, the animals were administered water or (-)-threo-chlorocitric acid at the indicated concentration by oral intubation 30 min before the 3 hr meal. Treatment was continued for 17 days. Food cups were weighed immediately after the meal. After 17 days of treatment, rats were killed by decapitation and blood was removed. […] C. Sullivan, et al, Am. J. Clinical Nutrition, 30 767 (1977). […] Total carcass and lipid data are expressed in grams and percentages of carcass weight.

isolated rat hepatocytes = assay: Fatty acid and cholesterol synthesis and CO2 production in isolated hepatocytes (Example 23); assay type: cell-based, Female Charles River rats; settings: for activity at 2000 µM: Rattus norvegicus, Hepatocyte, 1 h
Protocol: Female Charles River rats were fasted 48 hr, then meal-fed a 1% corn oil, 70% glucose diet for 7 to 14 days from 8 to 11 a.m. The isolated rat hepatocytes were prepared by perfusing the liver in situ. The hepatocytes were incubated in an oscillating water bath at 37° C. for 60 min. […] All incubations were done in triplicate and all experiments were repeated at least twice. […] The contents of the center well were transferred to scintillation counting fluid and ^14 CO2 content was determined. […] The media was then acidified, extracted with hexane, and the extract counted (to determine the rate of lipogenesis). The conversion of ^3 H2 O and [^14 C]alanine into fatty acids or sterols was determined in a PDS/3, Mark II liquid scintillation counting system.

[6] = test day 8, dose 100 mg/kg oral
[7] = test day 10, dose 300 mg/kg oral
[8] = test day 13, dose 1000 mg/kg oral

O=C(O)C[C@@](O)(C(=O)O)[C@@H](Cl)C(=O)O [(-)-threo-Chlorocitric acid]
Food Consumption ([1]; test day 1, dose 3 mg/kg oral): 450 ± 165 g
Food Consumption, % of control ([1]; test day 1, dose 3 mg/kg oral): 60 % of control
Food Consumption ([1]; test day 2, no dose): 646 ± 83 g
Food Consumption, % of control ([1]; test day 2, no dose): 87 % of control
Food Consumption ([1]; test day 3, dose 10 mg/kg oral): 440 ± 121 g
Food Consumption, % of control ([1]; test day 3, dose 10 mg/kg oral): 59 % of control
Food Consumption ([1]; test day 6, dose 30 mg/kg oral): 406 ± 86 g
Food Consumption, % of control ([1]; test day 6, dose 30 mg/kg oral): 55 % of control
Food Consumption ([1]; test day 7, no dose): 668 ± 115 g
Food Consumption, % of control ([1]; test day 7, no dose): 90 % of control
Food Consumption [1, 6]: 142 ± 38 g
Food Consumption, % of control [1, 6]: 19 % of control
Food Consumption ([1]; test day 9, no dose): 619 ± 62 g
Food Consumption, % of control ([1]; test day 9, no dose): 83 % of control
Food Consumption [1, 7]: 55 ± 39 g
Food Consumption, % of control [1, 7]: 7 % of control
Food Consumption [1, 8]: 56 ± 22 g
Food Consumption, % of control [1, 8]: 8 % of control
Food Consumption ([1]; test day 14, no dose): 439 ± 163 g
Food Consumption, % of control ([1]; test day 14, no dose): 59 % of control
Food Consumption ([1]; test day 15, no dose): 583 ± 149 g
Food Consumption, % of control ([1]; test day 15, no dose): 78 % of control
Food Consumption ([1]; test day 16, no dose): 600 ± 76 g
Food Consumption, % of control ([1]; test day 16, no dose): 81 % of control
Food Consumption ([1]; test day 17, no dose): 677 ± 73 g
Food Consumption, % of control ([1]; test day 17, no dose): 91 % of control
Food Consumption ([1]; test day 21, no dose): 644 ± 100 g
Food Consumption, % of control ([1]; test day 21, no dose): 87 % of control
Food Consumption ([1]; test day 22, no dose): 800 ± 0 g
Food Consumption, % of control ([1]; test day 22, no dose): 108 % of control
Food Consumption ([1]; test day 23, no dose): 596 ± 121 g
Food Consumption, % of control ([1]; test day 23, no dose): 80 % of control
Food Consumption ([1]; test day 24, no dose): 695 ± 79 g
Food Consumption, % of control ([1]; test day 24, no dose): 94 % of control
Food Consumption ([1]; test day 27, no dose): 732 ± 68 g
Food Consumption, % of control ([1]; test day 27, no dose): 99 % of control
Food Consumption ([1]; test day 28, no dose): 775 ± 26 g
Food Consumption, % of control ([1]; test day 28, no dose): 104 % of control
3-Day Body Weight Gain, % of initial body weight [2]: -11.0 % of initial body weight
3-Day Food Consumption, % of control [2]: 37 % of control
Food Consumption, % of control ([3]; 0.66 mmoles/kg oral): 59 % of control
Food Consumption, % of control ([3]; 2.63 mmoles/kg oral): 16 % of control
activity in the acute meal-fed assay utilizing three diets and in pyramiding dose studies, reduction in food consumption [4]: significantly more active
appetite suppression and reduction of body weight gain ([4]; short- and long-term chronic studies): suppressed appetite and reduced body weight gain in mammals more efficaciously than hydroxycitric acid or citric acid
Carcass Lipid % carcass, % of control ([5]; 0.25 mmoles (57 mg)/kg oral): 99 % of control
Carcass Lipid total, % of control ([5]; 0.25 mmoles (57 mg)/kg oral): 101 % of control
Carcass Lipid, % carcass ([5]; 0.25 mmoles (57 mg)/kg oral): 4.56 ± 0.42 % carcass
Carcass Lipid, total ([5]; 0.25 mmoles (57 mg)/kg oral): 9.64 ± 0.80 g
Carcass Weight ([5]; 0.25 mmoles (57 mg)/kg oral): 213 ± 4 g
Carcass Lipid % carcass, % of control ([5]; 0.50 mmoles (114 mg)/kg oral): 58 % of control
Carcass Lipid total, % of control ([5]; 0.50 mmoles (114 mg)/kg oral): 50 % of control
Carcass Lipid, % carcass ([5]; 0.50 mmoles (114 mg)/kg oral): 2.70 ± 0.17 % carcass
Carcass Lipid, total ([5]; 0.50 mmoles (114 mg)/kg oral): 4.80 ± 0.48 g
Carcass Weight ([5]; 0.50 mmoles (114 mg)/kg oral): 173 ± 4 g
Carcass Lipid % carcass, % of control ([5]; 1.00 mmoles (227 mg)/kg oral): 52 % of control
Carcass Lipid total, % of control ([5]; 1.00 mmoles (227 mg)/kg oral): 41 % of control
Carcass Lipid, % carcass ([5]; 1.00 mmoles (227 mg)/kg oral): 2.40 ± 0.22 % carcass
Carcass Lipid, total ([5]; 1.00 mmoles (227 mg)/kg oral): 3.92 ± 0.37 g
Carcass Weight ([5]; 1.00 mmoles (227 mg)/kg oral): 163 ± 7 g
CO2 Production, [14C]alanine converted (isolated rat hepatocytes; 2 mM, 60 min, 37° C., 2000 µM): 91 % of control
Cholesterol Synthesis, [14C]alanine converted (isolated rat hepatocytes; 2 mM, 60 min, 37° C., 2000 µM): 92 % of control
Fatty Acid Synthesis, 3H2O converted (isolated rat hepatocytes; 2 mM, 60 min, 37° C., 2000 µM): 95 % of control
Fatty Acid Synthesis, [14C]alanine converted (isolated rat hepatocytes; 2 mM, 60 min, 37° C., 2000 µM): 124 % of control and 96 % of control
activity at 2000 µM (isolated rat hepatocytes; 2 mM, 60 min, 37° C., read-out: CO2 Production, [14C]alanine converted): 83%
activity at 2000 µM (isolated rat hepatocytes; 2 mM, 60 min, 37° C., read-out: Cholesterol Synthesis, 3H2O converted): 116%
activity at 2000 µM (isolated rat hepatocytes; 2 mM, 60 min, 37° C., read-out: Cholesterol Synthesis, [14C]alanine converted): 88%
activity at 2000 µM (isolated rat hepatocytes; 2 mM, 60 min, 37° C., read-out: Fatty Acid Synthesis, 3H2O converted): 106%
inhibition of lipid (fatty acid) and cholesterol syntheses (isolated rat hepatocytes; in words): devoid of metabolic activity as an inhibitor of lipid and cholesterol syntheses
